From US6534447B1, “Herbicidal pyridine compounds” (BASF Aktiengesellschaft, priority 1999, dated 2003)

Legend:
Format in all cases: in vivo
[1] = system: Dolium multiflorum (LOLMU, ryegrass); test: Post-emergence herbicidal evaluation; settings: rate 0.100 kg/ha, 3 weeks after treatment
Method: (§1) These acetone solutions are diluted with water and the resulting formulations applied at dosage levels equivalent of about 0.025 to 0.4 kg per hectare of test compound per pot. After spraying the plants are placed on greenhouse benches and are cared for in the usual manner, commensurate with conventional greenhouse practices. From 3 weeks after treatment, the seedling plants are examined and rated according to the rating system provided above. A rating 0 indicates growth as untreated control, a rating 9 indicates death.

[2] = system: Alopecurus myosuroides (ALOMY, black grass); test: Post-emergence herbicidal evaluation; settings: 3 weeks after treatment
Method: as §1

[3] = system: Setaria viridis (SETVI, green foxtail); test: Post-emergence herbicidal evaluation; settings: 3 weeks after treatment
Method: as §1

[4] = system: Abutilon theophrasti (ABUTH, velvetleaf); test: Post-emergence herbicidal evaluation; settings: 3 weeks after treatment
Method: as §1

[5] = system: Galium aparine (GALAP, cleaver); test: Post-emergence herbicidal evaluation; settings: 3 weeks after treatment
Method: as §1

[6] = system: Stellaria media (STEME, chickweed); test: Post-emergence herbicidal evaluation; settings: 3 weeks after treatment
Method: as §1

[7] = system: Ipomoea hederacea (IPOHE, morning glory); test: Post-emergence herbicidal evaluation; settings: 3 weeks after treatment
Method: as §1

[8] = system: Matricaria inodora (MATIN, mayweed); test: Post-emergence herbicidal evaluation; settings: 3 weeks after treatment
Method: as §1

[9] = system: Echinochloa grus galli (ECHCG, barnyard grass); test: Post-emergence herbicidal evaluation; settings: 3 weeks after treatment
Method: as §1

[10] = system: Glycine max (GLXMA, soyabeans); test: Pre-emergence herbicidal evaluation (crop); settings: 3 weeks after treatment
Excerpt: (§2) The pre-emergence herbicidal activity of the compounds of the present invention is exemplified by the following test in which the seeds of a variety of monocotyledonous and dicotyledonous plants are seperately mixed with potting soil and planted on top of approximately one inch of soil in separate post. After planting, the pots are sprayed with the selected aqueous acetone solution. containing test compound in sufficient quantity to provide the equivalent of about 0.025 to 0.4 kg per hectare of test compound per pot. The treated pots are then placed on greenhouse benches, watered and cared for in accordance with conventional greenhouse procedures. From 3 weeks after treatment, the tests are terminated and each pot is examined and rated according to the rating system set forth below. [table] [table]

[11] = system: Triticum aestivum (TRZAW, winter wheat); test: Pre-emergence herbicidal evaluation (crop); settings: 3 weeks after treatment
Excerpt: as §2

[12] = system: Zea mays (ZEAMX, maize); test: Pre-emergence herbicidal evaluation (crop); settings: 3 weeks after treatment
Excerpt: as §2

[13] = system: Alopecurus myosuroides (ALOMY, black grass); test: Pre-emergence herbicidal evaluation; settings: 3 weeks after treatment
Excerpt: as §2

[14] = system: Setaria viridis (SETVI, green foxtail); test: Pre-emergence herbicidal evaluation; settings: 3 weeks after treatment
Excerpt: as §2

[15] = system: Abutilon theophrasti (ABUTH, velvetleaf); test: Pre-emergence herbicidal evaluation; settings: 3 weeks after treatment
Excerpt: as §2

[16] = system: Galium aparine (GALAP, cleaver); test: Pre-emergence herbicidal evaluation; settings: 3 weeks after treatment
Excerpt: as §2

[17] = system: Stellaria media (STEME, chickweed); test: Pre-emergence herbicidal evaluation; settings: 3 weeks after treatment
Excerpt: as §2

[18] = system: Ipomoea hederacea (IPOHE, morning glory); test: Pre-emergence herbicidal evaluation; settings: 3 weeks after treatment
Excerpt: as §2

[19] = system: Matricaria inodora (MATIN, mayweed); test: Pre-emergence herbicidal evaluation; settings: 3 weeks after treatment
Excerpt: as §2

[20] = system: Echinochloa grus galli (ECHCG, barnyard grass); test: Pre-emergence herbicidal evaluation; settings: 3 weeks after treatment
Excerpt: as §2

Cc1cc(OCCSC(F)(F)F)nc(Oc2ccnc(C(F)(F)F)c2)c1 [Example 51]
LOLMU rating [1]: 8 (8 - Approaching complete kill) | ALOMY rating ([2]; rate 0.025 kg/ha): 4 (4 - Injury) | ALOMY rating ([2]; rate 0.100 kg/ha): 7 (7 - Good herbicidal effect) | ALOMY rating ([2]; rate 0.400 kg/ha): 8 (8 - Approaching complete kill) | SETVI rating ([3]; rate 0.025 kg/ha): 8 (8 - Approaching complete kill) | SETVI rating ([3]; rate 0.100 kg/ha): 9 (9 - Complete kill) | SETVI rating ([3]; rate 0.400 kg/ha): 9 (9 - Complete kill) | ABUTH rating ([4]; rate 0.025 kg/ha): 7 (7 - Good herbicidal effect) | ABUTH rating ([4]; rate 0.100 kg/ha): 8 (8 - Approaching complete kill) | ABUTH rating ([4]; rate 0.400 kg/ha): 8 (8 - Approaching complete kill) | GALAP rating ([5]; rate 0.025 kg/ha): 6 (6 - Herbicidal effect) | GALAP rating ([5]; rate 0.100 kg/ha): 9 (9 - Complete kill) | GALAP rating ([5]; rate 0.400 kg/ha): 9 (9 - Complete kill) | STEME rating ([6]; rate 0.025 kg/ha): 8 (8 - Approaching complete kill) | STEME rating ([6]; rate 0.100 kg/ha): 9 (9 - Complete kill) | STEME rating ([6]; rate 0.400 kg/ha): 9 (9 - Complete kill) | IPOHE rating ([7]; rate 0.025 kg/ha): 9 (9 - Complete kill) | IPOHE rating ([7]; rate 0.100 kg/ha): 9 (9 - Complete kill) | IPOHE rating ([7]; rate 0.400 kg/ha): 9 (9 - Complete kill) | MATIN rating ([8]; rate 0.025 kg/ha): 4 (4 - Injury) | MATIN rating ([8]; rate 0.100 kg/ha): 6 (6 - Herbicidal effect) | MATIN rating ([8]; rate 0.400 kg/ha): 8 (8 - Approaching complete kill) | ECHCG rating ([9]; rate 0.025 kg/ha): 9 (9 - Complete kill) | ECHCG rating ([9]; rate 0.100 kg/ha): 9 (9 - Complete kill) | ECHCG rating ([9]; rate 0.400 kg/ha): 9 (9 - Complete kill) | GLXMA rating ([10]; rate 0.025 kg/ha): 4 (4 - Injury) | GLXMA rating ([10]; rate 0.100 kg/ha): 5 (5 - Definite injury) | GLXMA rating ([10]; rate 0.400 kg/ha): 6 (6 - Herbicidal effect) | TRZAW rating ([11]; rate 0.025 kg/ha): 2 (2 - Slight effect) | TRZAW rating ([11]; rate 0.100 kg/ha): 4 (4 - Injury) | TRZAW rating ([11]; rate 0.400 kg/ha): 6 (6 - Herbicidal effect) | ZEAMX rating ([12]; rate 0.025 kg/ha): 3 (3 - Moderate effect) | ZEAMX rating ([12]; rate 0.100 kg/ha): 4 (4 - Injury) | ZEAMX rating ([12]; rate 0.400 kg/ha): 5 (5 - Definite injury) | ALOMY rating ([13]; rate 0.025 kg/ha): 8 (8 - Approaching complete kill) | ALOMY rating ([13]; rate 0.100 kg/ha): 8 (8 - Approaching complete kill) | ALOMY rating ([13]; rate 0.400 kg/ha): 8 (8 - Approaching complete kill) | SETVI rating ([14]; rate 0.025 kg/ha): 8 (8 - Approaching complete kill) | SETVI rating ([14]; rate 0.100 kg/ha): 8 (8 - Approaching complete kill) | SETVI rating ([14]; rate 0.400 kg/ha): 9 (9 - Complete kill) | ABUTH rating ([15]; rate 0.025 kg/ha): 9 (9 - Complete kill) | ABUTH rating ([15]; rate 0.100 kg/ha): 9 (9 - Complete kill) | ABUTH rating ([15]; rate 0.400 kg/ha): 9 (9 - Complete kill) | GALAP rating ([16]; rate 0.025 kg/ha): 8 (8 - Approaching complete kill) | GALAP rating ([16]; rate 0.100 kg/ha): 8 (8 - Approaching complete kill) | GALAP rating ([16]; rate 0.400 kg/ha): 8 (8 - Approaching complete kill) | STEME rating ([17]; rate 0.025 kg/ha): 9 (9 - Complete kill) | STEME rating ([17]; rate 0.100 kg/ha): 9 (9 - Complete kill) | STEME rating ([17]; rate 0.400 kg/ha): 9 (9 - Complete kill) | IPOHE rating ([18]; rate 0.025 kg/ha): 9 (9 - Complete kill) | IPOHE rating ([18]; rate 0.100 kg/ha): 9 (9 - Complete kill) | IPOHE rating ([18]; rate 0.400 kg/ha): 9 (9 - Complete kill) | MATIN rating ([19]; rate 0.025 kg/ha): 8 (8 - Approaching complete kill) | MATIN rating ([19]; rate 0.100 kg/ha): 9 (9 - Complete kill) | MATIN rating ([19]; rate 0.400 kg/ha): 9 (9 - Complete kill) | ECHCG rating ([20]; rate 0.025 kg/ha): 7 (7 - Good herbicidal effect) | ECHCG rating ([20]; rate 0.100 kg/ha): 9 (9 - Complete kill) | ECHCG rating ([20]; rate 0.400 kg/ha): 9 (9 - Complete kill)

Cc1cc(OCC=C(Cl)SC(F)(F)F)nc(Oc2cc(C(F)(F)F)nn2C)c1 [Example 5]
LOLMU rating [1]: 8 (8 - Approaching complete kill) | ALOMY rating ([2]; rate 0.025 kg/ha): 6 (6 - Herbicidal effect) | ALOMY rating ([2]; rate 0.100 kg/ha): 7 (7 - Good herbicidal effect) | ALOMY rating ([2]; rate 0.400 kg/ha): 8 (8 - Approaching complete kill) | SETVI rating ([3]; rate 0.025 kg/ha): 9 (9 - Complete kill) | SETVI rating ([3]; rate 0.100 kg/ha): 9 (9 - Complete kill) | SETVI rating ([3]; rate 0.400 kg/ha): 9 (9 - Complete kill) | ABUTH rating ([4]; rate 0.025 kg/ha): 7 (7 - Good herbicidal effect) | ABUTH rating ([4]; rate 0.100 kg/ha): 8 (8 - Approaching complete kill) | ABUTH rating ([4]; rate 0.400 kg/ha): 8 (8 - Approaching complete kill) | GALAP rating ([5]; rate 0.025 kg/ha): 7 (7 - Good herbicidal effect) | GALAP rating ([5]; rate 0.100 kg/ha): 8 (8 - Approaching complete kill) | GALAP rating ([5]; rate 0.400 kg/ha): 8 (8 - Approaching complete kill) | STEME rating ([6]; rate 0.025 kg/ha): 4 (4 - Injury) | STEME rating ([6]; rate 0.100 kg/ha): 5 (5 - Definite injury) | STEME rating ([6]; rate 0.400 kg/ha): 7 (7 - Good herbicidal effect) | IPOHE rating ([7]; rate 0.025 kg/ha): 9 (9 - Complete kill) | IPOHE rating ([7]; rate 0.100 kg/ha): 9 (9 - Complete kill) | IPOHE rating ([7]; rate 0.400 kg/ha): 9 (9 - Complete kill) | MATIN rating ([8]; rate 0.025 kg/ha): 6 (6 - Herbicidal effect) | MATIN rating ([8]; rate 0.100 kg/ha): 7 (7 - Good herbicidal effect) | MATIN rating ([8]; rate 0.400 kg/ha): 7 (7 - Good herbicidal effect) | ECHCG rating ([9]; rate 0.025 kg/ha): 7 (7 - Good herbicidal effect) | ECHCG rating ([9]; rate 0.100 kg/ha): 8 (8 - Approaching complete kill) | ECHCG rating ([9]; rate 0.400 kg/ha): 8 (8 - Approaching complete kill) | GLXMA rating ([10]; rate 0.025 kg/ha): 2 (2 - Slight effect) | GLXMA rating ([10]; rate 0.100 kg/ha): 2 (2 - Slight effect) | GLXMA rating ([10]; rate 0.400 kg/ha): 3 (3 - Moderate effect) | TRZAW rating ([11]; rate 0.025 kg/ha): 2 (2 - Slight effect) | TRZAW rating ([11]; rate 0.100 kg/ha): 3 (3 - Moderate effect) | TRZAW rating ([11]; rate 0.400 kg/ha): 6 (6 - Herbicidal effect) | ZEAMX rating ([12]; rate 0.025 kg/ha): 2 (2 - Slight effect) | ZEAMX rating ([12]; rate 0.100 kg/ha): 3 (3 - Moderate effect) | ZEAMX rating ([12]; rate 0.400 kg/ha): 4 (4 - Injury) | ALOMY rating ([13]; rate 0.025 kg/ha): 7 (7 - Good herbicidal effect) | ALOMY rating ([13]; rate 0.100 kg/ha): 8 (8 - Approaching complete kill) | ALOMY rating ([13]; rate 0.400 kg/ha): 8 (8 - Approaching complete kill) | SETVI rating ([14]; rate 0.025 kg/ha): 8 (8 - Approaching complete kill) | SETVI rating ([14]; rate 0.100 kg/ha): 9 (9 - Complete kill) | SETVI rating ([14]; rate 0.400 kg/ha): 9 (9 - Complete kill) | ABUTH rating ([15]; rate 0.025 kg/ha): 5 (5 - Definite injury) | ABUTH rating ([15]; rate 0.100 kg/ha): 8 (8 - Approaching complete kill) | ABUTH rating ([15]; rate 0.400 kg/ha): 8 (8 - Approaching complete kill) | GALAP rating ([16]; rate 0.025 kg/ha): 5 (5 - Definite injury) | GALAP rating ([16]; rate 0.100 kg/ha): 7 (7 - Good herbicidal effect) | GALAP rating ([16]; rate 0.400 kg/ha): 7 (7 - Good herbicidal effect) | STEME rating ([17]; rate 0.025 kg/ha): 9 (9 - Complete kill) | STEME rating ([17]; rate 0.100 kg/ha): 9 (9 - Complete kill) | STEME rating ([17]; rate 0.400 kg/ha): 9 (9 - Complete kill) | IPOHE rating ([18]; rate 0.025 kg/ha): 8 (8 - Approaching complete kill) | IPOHE rating ([18]; rate 0.100 kg/ha): 9 (9 - Complete kill) | IPOHE rating ([18]; rate 0.400 kg/ha): 9 (9 - Complete kill) | MATIN rating ([19]; rate 0.025 kg/ha): 8 (8 - Approaching complete kill) | MATIN rating ([19]; rate 0.100 kg/ha): 8 (8 - Approaching complete kill) | MATIN rating ([19]; rate 0.400 kg/ha): 9 (9 - Complete kill) | ECHCG rating ([20]; rate 0.025 kg/ha): 6 (6 - Herbicidal effect) | ECHCG rating ([20]; rate 0.100 kg/ha): 8 (8 - Approaching complete kill) | ECHCG rating ([20]; rate 0.400 kg/ha): 9 (9 - Complete kill)
